Reference: patent US20170158702A1, “MULTIVALENT RAS BINDING COMPOUNDS” (KYRAS THERAPEUTICS, INC., priority 2015, published 2017)
Where a name gives a salt, the structure may show the parent alone.

How the values were obtained:
Format in all cases: cell-based
[1] = tested on: NCI-H460; test: Viability assay with NCI-H460 (CellTiter-Glo cytotoxicity assay, 72 h); details: NCI-H460 cell line, 72 h after compounds addition
Method in brief: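 NCI-H460 cells, RPMI 1640 + 10% FBS, seeded 1200/well and adhered overnight, then exposed to compounds at 9 points, 2-fold dilution, in triplicate, 0.5% DMSO final. Cellular ATP measured by CellTiter-Glo luminescence 72 h after addition.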

[2] = tested on: MIA PaCa-2; test: Viability assay with MIA PaCa-2; details: MIA PaCa-2, viability assay per Example 57
Method in brief: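 MIA PaCa-2 cells were seeded at 1200/well, allowed to adhere overnight, then treated in triplicate with 9-point 2-fold compound dilutions at 0.5% final DMSO. Viability was measured as cellular ATP by CellTiter-Glo luminescence 72 h after compound addition.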

[3] = tested on: HT-29; test: Viability assay with HT-29; details: HT-29, viability assay per Example 57
Description: NCI-H460 (Epithelial lung tissue; carcinoma; large cell lung cancer) were cultured in RPMI Medium 1640 (Invitrogen-22400105) supplemented with 10% fetal bovine serum (FBS; Invitrogen-10099141). All the cell lines were maintained in a humidified incubator at 37° C. with 5% CO2. Cell culture media and supplements were purchased from Invitrogen, and tissue culture flasks were purchased from Corning, 96-well plates were purchased from Greiner. CellTiter-Glo Luminescent Cell Viability Assay kits were purchased from Promega (Promega-G7573), cells counter Vi-Cell was purchased from Beckman, D300e digital dispenser was purchased from Tecan, detection instrument Envision was purchased from PerkinElmer.
Paclitaxel was purchased from SELLECK, test compounds, such as any one of the compounds disclosed herein, attained solubility in DMSO and when diluted into culture media. DMSO, solutions containing the test compounds, and culture media were warmed to 37° C. or room temperature for the solution preparation and dilutions.
NCI-H460 Cell line were seeded in 96-well plates (1200/well) and allowed to adhere to overnight (100 uL/well), for drug treatments with 2 fold dilution, 9 dose points, triplicates or vehicle control, compound stock solutions were prepared in DMSO and use D300e digital dispenser to add compounds to the wells to give the indicated final drug concentrations. Final DMSO concentration was 0.5%. Cellular ATP concentrations were assessed by using the CellTiter-Glo Cell Viability Assay as per the manufacturer's instructions 72 h after compounds addition. Additional cells lines were assayed with any one of the compounds disclosed herein according to the procedures described for the viability assay with NCI-H460.
A viability assay with HT-29 (Colorectal adenocarcinoma) was performed with compounds listed in Table 18 according to the procedures described in Example 57.

Structure (SMILES): COc1ccc(-c2cn(CCCN)c3ccc(CN4CCN(Cc5ccccc5Cl)CC4)cc23)c(CN(C)C)c1 [C284; HCl]
- EC50 [1]: ≤ 5 µM
- EC50 [2]: ≤ 5 µM
- EC50 [3]: ≤ 5 µM

Structure (SMILES): COc1cccc(OC2CCN(Cc3ccc4c(c3)c(-c3ccc(OC(F)(F)F)cc3CN)cn4CCCN)CC2)c1 [C280; HCl]
- EC50 [1]: ≤ 5 µM
- EC50 [2]: ≤ 5 µM
- EC50 [3]: ≤ 5 µM

Structure (SMILES): NC1(C(=O)NCCCn2nc(-c3ccc(OC(F)(F)F)cc3)c3cc(CN4CCN(Cc5ccccc5Cl)CC4)ccc32)CCNCC1 [C201; HCl]
- EC50 [1]: ≤ 5 µM
- EC50 [2]: ≤ 5 µM
- EC50 [3]: ≤ 5 µM

Structure (SMILES): NCCCn1cc(-c2ccc(OC(F)(F)F)cc2)c2cc(NC3CCN(Cc4ccccc4Cl)CC3)ccc21 [C129; HCl]
- EC50 [1]: ≤ 5 µM
- EC50 [2]: ≤ 5 µM
- EC50 [3]: ≤ 5 µM

Structure (SMILES): NCCCn1cc(-c2ccc(OC(F)(F)F)cc2)c2cc(CN3CCSCC3)ccc21 [C293; HCl]
- EC50 [1]: ≤ 5 µM
- EC50 [2]: ≤ 5 µM
- EC50 [3]: ≤ 5 µM

Structure (SMILES): NCCCn1nc(-c2ccc(OC(F)(F)F)cc2)c2cc(CN3CCN(Cc4ccccc4Cl)CC3)ccc21 [C178; HCl]
- EC50 [1]: ≤ 5 µM
- EC50 [2]: ≤ 5 µM
- EC50 [3]: ≤ 5 µM

Structure (SMILES): NCc1cc(-n2cc(-c3ccc(OC(F)(F)F)cc3)c3cc(CN4CCN(Cc5ccccc5Cl)CC4)ccc32)ccn1 [C229; Formic Acid]
- EC50 [1]: ≤ 5 µM
- EC50 [2]: ≤ 5 µM
- EC50 [3]: ≤ 5 µM

Structure (SMILES): COc1cnc(-c2cn(CCCN)c3ccc(CN4CCN(Cc5ccccc5Cl)CC4)cc23)nc1 [C204; HCl]
- EC50 [1]: ≤ 5 µM
- EC50 [2]: ≤ 5 µM
- EC50 [3]: ≤ 5 µM

Structure (SMILES): NCCCn1cc(-c2ccc(OC(F)(F)F)cc2)c2cc(CN3CCC(Oc4cccc(Cl)c4)CC3)ccc21 [C236; HCl]
- EC50 [1]: ≤ 5 µM
- EC50 [2]: ≤ 5 µM
- EC50 [3]: ≤ 5 µM

Structure (SMILES): NCc1cc(OC(F)(F)F)ccc1-c1cn(CCCNC(=O)C2(N)CCNCC2)c2ccc(CN3CCN(Cc4ccccc4Cl)CC3)cc12 [C264; HCl]
- EC50 [1]: 5 to 10 µM
- EC50 [2]: 5 to 10 µM
- EC50 [3]: 5 to 10 µM

Structure (SMILES): NCCCn1cc(-c2ccc(OC(F)(F)F)cc2)c2cc(Nc3ccc(Nc4ccccc4Cl)nc3)ccc21 [C246; Formic Acid]
- EC50 [1]: 5 to 10 µM
- EC50 [2]: 5 to 10 µM
- EC50 [3]: 10 to 30 µM

Structure (SMILES): COc1cccc(CN2CCC(Cc3ccc4c(c3)c(-c3ccc(OC(F)(F)F)cc3CN)cn4CCCN)CC2)c1 [C291; HCl]
- EC50 [1]: ≤ 5 µM
- EC50 [2]: ≤ 5 µM
- EC50 [3]: ≤ 5 µM

Structure (SMILES): NCCCn1cc(-c2ccccc2CO)c2cc(CN3CCN(Cc4ccccc4Cl)CC3)ccc21 [C181; HCl]
- EC50 [1]: ≤ 5 µM
- EC50 [2]: ≤ 5 µM
- EC50 [3]: ≤ 5 µM

Structure (SMILES): CC1CCN(Cc2ccc3c(c2)c(-c2ccc(OC(F)(F)F)cc2CN)cn3CCCN)CC1 [C257; HCl]
- EC50 [1]: ≤ 5 µM
- EC50 [2]: ≤ 5 µM
- EC50 [3]: ≤ 5 µM

Structure (SMILES): NCCCn1cc(-c2ccc(OC(F)(F)F)cc2CN)c2cc(CN3CCC(Nc4ccccc4Cl)CC3)ccc21 [C241; HCl]
- EC50 [1]: ≤ 5 µM
- EC50 [2]: ≤ 5 µM
- EC50 [3]: ≤ 5 µM

Structure (SMILES): NCCCn1cc(-c2ccc(OC(F)(F)F)cc2)c2c(CN3CCN(CCc4ccccc4Cl)CC3)cccc21 [C147; HCl]
- EC50 [1]: ≤ 5 µM
- EC50 [2]: ≤ 5 µM
- EC50 [3]: ≤ 5 µM

Structure (SMILES): NCCCn1cc(-c2ccc(OC(F)(F)F)cc2)c2cc(CN3CCC(Oc4ccccc4Cl)CC3)ccc21 [C215; HCl]
- EC50 [1]: ≤ 5 µM
- EC50 [2]: ≤ 5 µM
- EC50 [3]: ≤ 5 µM

Structure (SMILES): Nc1ccc(Cn2cc(-c3ccc(OC(F)(F)F)cc3)c3cc(CN4CCN(Cc5ccccc5Cl)CC4)ccc32)cn1 [C232; Formic Acid]
- EC50 [1]: ≤ 5 µM
- EC50 [2]: ≤ 5 µM
- EC50 [3]: ≤ 5 µM

Structure (SMILES): NCCCn1cc(-c2ccc(OC(F)(F)F)cc2CN)c2cc(S(=O)(=O)N3CCC(Nc4cccc(Cl)c4)CC3)ccc21 [C263; Formic Acid]
- EC50 [1]: ≤ 5 µM
- EC50 [2]: ≤ 5 µM
- EC50 [3]: 5 to 10 µM

Structure (SMILES): COc1ccc(-c2cn(CCCN)c3ccc(CN4CCN(Cc5ccccc5Cl)CC4)cc23)c(CN)c1 [C222; HCl]
- EC50 [1]: ≤ 5 µM
- EC50 [2]: ≤ 5 µM
- EC50 [3]: ≤ 5 µM

Structure (SMILES): COc1cccc(CN(C)CCN(C)Cc2ccc3c(c2)c(-c2ccc(OC(F)(F)F)cc2CN)cn3CCCN)c1 [C296; HCl]
- EC50 [1]: ≤ 5 µM
- EC50 [2]: ≤ 5 µM
- EC50 [3]: ≤ 5 µM

Structure (SMILES): NCCCn1cc(-c2ccc(OC(F)(F)F)cc2CN)c2cc(CN3CCN(Cc4cccc(OC(F)(F)F)c4)CC3)ccc21 [C267; HCl]
- EC50 [1]: ≤ 5 µM
- EC50 [2]: ≤ 5 µM
- EC50 [3]: ≤ 5 µM

Structure (SMILES): NC1CCC(n2cc(-c3ccc(OC(F)(F)F)cc3)c3cc(CN4CCN(Cc5ccccc5Cl)CC4)ccc32)C1 (stereo not drawn) [C134; HCl]
- EC50 [1]: ≤ 5 µM
- EC50 [2]: ≤ 5 µM
- EC50 [3]: ≤ 5 µM
